# Results published in PubChem BioAssay AID2060906 (Molecular Pharmacology Branch, DTP, NCI, 2025).
# Values joined by “and” are separate entries in the source; they are usually repeats but may differ in a detail not shown here. Equal values may be shown once.
# Test system: 485176-168-R4-J1-PDC complex spheroid growth
# Test: Anticancer human tumor 485176-168-R4-J1-PDC patient-derived pancreatic adenocarcinoma cell line growth inhibition [RAS]
# Details: for viability, T/C: stronger effect = lower value
# Text: RAS pathway inhibitors in Combinations in Complex Spheroids
# A high-throughput screen of multi-cell type tumor spheroids was designed to identify active combinations of RAS pathway inhibitors and targeted small molecules. Complex spheroids include a stromal component modeled by human endothelial cells (HUVEC) and fibroblasts modeled by human mesenchymal stem cells (MSCs). The concentration ranges selected for each drug and investigational agent were based upon clinically achievable concentrations if the clinical Cmax of the agent was known.
# Compounds. The drugs and investigational agents: abemaciclib (NSC768073), cobimetinib (NSC768068), divarasib (GDC6063, NSC841802), docetaxel (NSC628503), GDC-1971 (RLY-1971, NSC841576), gemcitabine (NSC613327), inavolisib (NSC800729), ipatasertib (NSC767898), KB-0742 (NSC834161), MRTX-1133 (NSC836407), osimertinib (NSC779217), RMC-4630 (NSC839698), RMC-6236 (NSC851965), RMC-6291 (NSC852671), Ro-3306 (NSC812927), sapanisertib (NSC764658), SN-38 (NSC673596), staurosporine (NSC755774), SY5609 (NSC837396), and tovorafenib (DAY101, NSC766906), were obtained from the National Cancer Institute (NCI) Developmental Therapeutics Program Chemical Repository. The FDA-approved anticancer drug set is available from the NCI Developmental Therapeutics Program. […] The stock solutions were prepared in dimethyl sulfoxide (DMSO, Sigma-Aldrich, St. Louis, MO, cat. D2650) at 800-fold the tested concentration and stored at -70 degrees C prior to their use. All drugs and investigational agents were tested over a range starting from a high concentration at or near the clinical Cmax and decreasing in half-log increments. If the clinical Cmax for an agent had not been determined, the highest concentration tested was 10 microM.
# Cell Culture. All cells were maintained in an incubator at 37 degrees C and 5% CO2 with 95% humidity. The PDC lines were cultured according to standard operating procedures established by the NCI PDMR. All PDCs were thawed and cultured in Matrigel-coated flasks prepared with a working solution of 1X Ham's F-12 nutrient mix, without supplementation (Invitrogen, Waltham, MA, cat. 11765054), 100 U/mL penicillin-streptomycin (Invitrogen, cat. 15140122), and 2.5% Matrigel (Corning Inc., Corning, NY, cat. 354248) for the first three passages. The 362531-283-R-J2-PDC and 782815-120-R-J1-PDC lines were cultured in 6C/Colon 1B media, which includes advanced DMEM/F-12 (Thermo Fisher Scientific, cat. 12634028), 10 mM HEPES (Thermo Fisher Scientific, cat. 15630080), 1X GlutaMAX supplement (Thermo Fisher Scientific, cat. 35050061), 0.1 mg/mL primocin (InvivoGen, San Diego, CA, cat. ant-pm-2), 10% defined fetal bovine serum, heat inactivated (HyClone Laboratories Inc., Logan, UT, cat. SH30070.03HI), 50% L-WRN conditioned media (ATCC, cat. CRL-3276), 1.25 mM N-Acetyl-L-cysteine (Sigma-Aldrich, cat. A9165), 10 mM nicotinamide (Sigma-Aldrich, cat. N0636), 1X B-27 supplement (Thermo Fisher Scientific, cat. 17504044), 1X N-2 supplement (Thermo Fisher Scientific, cat. 17502048), 50 ng/mL human EGF (Thermo Fisher Scientific, cat. PHG0311), and 10 microM Y-27632 dihydrochloride (Tocris Bioscience, cat. 1254). The K12877-001-R-J1-PDC line was cultured in 6I media, which includes all 6C/Colon 1B media plus 10 ng/mL human FGF-10 (PeproTech, cat. 100-26), 1 ng/mL human FGF-2 (PeproTech, cat. 100-18B), 1 µM prostaglandin E2 (Tocris Bioscience, cat. 2296), […] hydrocortisone (Sigma-Aldrich, cat. H4001), and […] bovine insulin (Sigma-Aldrich, cat. I6634). The K86415-001-R-J1-PDC line was cultured in 6D media, which includes all 6C/Colon 1B media components minus the L-WRN conditioned media. The 485176-168-R4-J1-PDC was cultured in PANC media, which includes all 6C/Colon 1B media plus 100 ng/mL human FGF-10 (PeproTech, cat. 100-26), 500 nM SB-431542 (Selleckchem, cat. S1067), and 10 nM gastrin (Tocris Bioscience, cat. 3006). […]
# [1] = compound alone, run of 05/20/2024
# 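Note: spheroids exposed to compounds for seven days before readout.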
# 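Throughout, for viability, T/C: luminescence viability expressed relative to DMSO vehicle wells set as 100%.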
IC50 (curve of compound),IC50 [1],Structure (SMILES),"viability, T/C (compound 0.0316 µM)","viability, T/C (compound 0.1 µM)","viability, T/C (compound 0.316 µM)","viability, T/C (compound 1 µM)","viability, T/C (compound 3.16 µM)","viability, T/C (compound 10 µM)","viability, T/C (compound 0.00316 µM)","viability, T/C (compound 0.01 µM)","viability, T/C (compound 0.003 µM)","viability, T/C (compound 0.00949 µM)","viability, T/C (compound 0.03 µM)","viability, T/C (compound 0.0949 µM)","viability, T/C (compound 0.3 µM)","viability, T/C (compound 0.000949 µM)"
> 1 µM,,CCN1CCN(Cc2ccc(Nc3ncc(F)c(-c4cc(F)c5nc(C)n(C(C)C)c5c4)n3)nc2)CC1,100% [middle of 4 runs],,75.5% [middle of 4 runs],67.7% [middle of 4 runs],,,92.9% [middle of 4 runs],88.4% [middle of 4 runs],,,,,,
,> 0.3 µM,CCn1c(-c2cc(N3CCN(C)CC3)cnc2C(C)OC)c2c3cc(ccc31)-c1csc(n1)CC(NC(=O)C1CC1C)C(=O)N1CCCC(N1)C(=O)OCC(C)(C)C2 (stereo unspecified),,,,,,,,,102% [middle of 8 runs],92.2% [middle of 8 runs],,,,102% [middle of 8 runs]
> 10 µM,,C[C@@H](NC(=O)c1ncnc(N)c1Cl)c1ncc(C(=O)Nc2cc(C(F)(F)F)c(Cl)cn2)s1,105% [middle of 4 runs],96% [middle of 4 runs],88.5% [middle of 4 runs],79.2% [middle of 4 runs],79.1% [middle of 4 runs],60.9% [middle of 4 runs],,,,,,,,
206 nM [middle of 4 runs],,O=C(c1ccc(F)c(F)c1Nc1ccc(I)cc1F)N1CC(O)([C@@H]2CCCCN2)C1,71% [middle of 4 runs],53.7% [middle of 4 runs],51.2% [middle of 4 runs],39.7% [middle of 4 runs],,,91.9% [middle of 4 runs],78.6% [middle of 4 runs],,,,,,

# More lines, now with the values behind:
Structure (SMILES),IC50 (curve of compound),IC50 [1],"viability, T/C (compound 0.0316 µM)","viability, T/C (compound 0.1 µM)","viability, T/C (compound 0.316 µM)","viability, T/C (compound 1 µM)","viability, T/C (compound 3.16 µM)","viability, T/C (compound 10 µM)","viability, T/C (compound 0.00316 µM)","viability, T/C (compound 0.01 µM)","viability, T/C (compound 0.003 µM)","viability, T/C (compound 0.00949 µM)","viability, T/C (compound 0.03 µM)","viability, T/C (compound 0.0949 µM)","viability, T/C (compound 0.3 µM)","viability, T/C (compound 0.000949 µM)"
CCC(CC)c1cc(NC2CCC(N)C2)n2nccc2n1 (stereo unspecified),1.58 µM [middle of 4 runs],,105% [middle of 4 runs],93.7% [middle of 4 runs],98.9% [middle of 4 runs],80.6% [middle of 4 runs],3.56% [middle of 4 runs],0.72% [middle of 4 runs],,,,,,,,
CCc1c2c(nc3ccc(O)cc13)-c1cc3c(c(=O)n1C2)COC(=O)[C@]3(O)CC,17.9 nM [middle of 4 runs],,,,,,,,,,86.2% [middle of 4 runs],66% [middle of 4 runs],36.5% [middle of 4 runs],14% [middle of 4 runs],7.88% [middle of 4 runs],
CCn1c(-c2cccnc2C(C)OC)c2c3cc(ccc31)N1CCOC(CC(NC(=O)C(C(C)C)N(C)C(=O)C3(F)CCN(C(=O)C#CC(C)(C)N(C)C)CC3)C(=O)N3CCCC(N3)C(=O)OCC(C)(C)C2)C1 (stereo unspecified),,> 0.3 µM,,,,,,,,,104% [middle of 8 runs],107% [middle of 8 runs],93.8% [middle of 8 runs],93% [middle of 8 runs],81.7% [middle of 8 runs],
Cc1nc(N2CCC3(CC2)COC(C)C3N)c(CO)nc1Sc1ccnc(N)c1Cl (stereo unspecified),> 10 µM,,102% [middle of 4 runs],86.5% [middle of 4 runs],82.8% [middle of 4 runs],74.3% [middle of 4 runs],84.5% [middle of 4 runs],63.4% (2×) and 81.9% and 74.9%,,,,,,,,
Nc1ccn(C2OC(CO)C(O)C2(F)F)c(=O)n1 (stereo unspecified),16.7 nM [middle of 4 runs],,17.7% [middle of 4 runs],9.63% [middle of 4 runs],9.78% [middle of 4 runs],12.4% [middle of 4 runs],,,97.3% [middle of 4 runs],,,,,,,
